Test [1] concerns the target T1, human amylin 3(a) receptor (human calcitonin receptor + RAMP-3) in BHK570 cells (Homo sapiens, UniProt O60896+P30988).
T1 construct: expressed in transfected cells
Description: ASSAY (II)a functional assay, human amylin receptor (CRE luciferase). Type of test: cell-based. Summed up:
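Read-out: CRE-driven luciferase luminescence, single photon counting, after 30 min at room temperature with LucLite. BHK cells expressed calcitonin receptor alone or with RAMP-3 (amylin 3(a)). Cells were stimulated 3 h at 37° C in DMEM, 10% FBS, 10 mM Hepes, pH 7.4.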

The target in test [2] is T2, human amylin receptor (membranes from Amylin 3(a)/CRE-luc cells) (Homo sapiens, UniProt O60896+P30988).
T2 construct: expressed in transfected cells
T2 sequence (P30988 25-474): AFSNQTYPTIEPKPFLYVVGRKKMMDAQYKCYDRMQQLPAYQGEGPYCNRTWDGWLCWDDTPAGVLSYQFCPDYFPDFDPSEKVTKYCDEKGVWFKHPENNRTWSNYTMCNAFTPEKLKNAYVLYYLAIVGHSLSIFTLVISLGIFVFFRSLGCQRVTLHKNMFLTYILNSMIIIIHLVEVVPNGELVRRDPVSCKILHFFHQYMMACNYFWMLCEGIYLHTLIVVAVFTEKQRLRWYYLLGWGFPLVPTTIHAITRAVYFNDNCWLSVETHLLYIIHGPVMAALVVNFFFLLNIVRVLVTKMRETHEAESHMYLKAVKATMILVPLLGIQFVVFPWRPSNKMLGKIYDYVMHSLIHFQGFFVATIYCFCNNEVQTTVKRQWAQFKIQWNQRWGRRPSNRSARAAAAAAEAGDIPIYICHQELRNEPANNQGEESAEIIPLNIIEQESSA
T2 sequence (O60896 24-148 partner): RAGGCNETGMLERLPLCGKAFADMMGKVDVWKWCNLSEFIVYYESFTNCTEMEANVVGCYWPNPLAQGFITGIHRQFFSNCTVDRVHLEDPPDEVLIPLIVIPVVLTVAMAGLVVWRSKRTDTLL
Description: ASSAY (V) binding to the human amylin receptor (SPA, 125I-rat amylin).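 Further: competition binding of cell membranes (35 ng/µL) mixed with SPA beads in 384-well plates at 40 µL total volume, read by scintillation counting.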

Where [3] appears, read: hCTR funct. EC50 / hAmylin-R funct. EC50.
[4] abbreviates: hCTR funct. EC50 divided by hAmylin-R funct. EC50.
[5] abbreviates: hCTR funct. EC50 over hAmylin-R funct. EC50.
Setting [6] is: human functional selectivity: hCTR funct. EC50 / hAmylin-R funct. EC50.
Where [7] appears, read: Table 5, selectivity, hCTR bind IC50 / hAmylin-R bind IC50.
[8] abbreviates: Table 7, human binding selectivity, included for comparison.

Numbered stars: 1 amine (or outer) side, 2 acyl side, 3 side chain; on linkers, the order of the positions; unused ones are H or OH. Bridge positions count the residues as written; N and C are the ends. Side chains are listed from the residue outwards. Peptide text beside a SMILES is read from it. * marks the point of attachment. C20 diacid = O=C(O)CCCCCCCCCCCCCCCCCCC(=O)*; γGlu = O=C(O)[C@H](CCC(=O)[*:2])N[*:1]

By EC50 is commonly meant the midpoint of the concentration-response curve. The IC50 is the concentration that inhibits the measured activity by half. As to `CC[C@H](C)[C@H](NC(=O)[C@H](C)NC(=O)CNC(=O)[C@H](Cc1ccccc1)NC(=O)[C@H](CC(N)=O)NC(=O)[C@@H]1CCCN1C(=O)[C@H](CO)NC(=O)[C@H](CO)NC(=O)[C@H](Cc1c[nH]cn1)NC(=O)[C@H](CCCNC(=N)N)NC(=O)[C@H](CC(C)C)NC(=O)[C@H](Cc1ccccc1)NC(=O)[C@H](CCC(=O)O)NC(=O)[C@H](C)NC(=O)[C@H](CC(C)C)NC(=O)[C@H](CCCNC(=N)N)NC(=O)[C@H](CCC(N)=O)NC(=O)[C@@H](NC(=O)[C@H](C)NC(=O)[C@@H]1CSSC[C@H](NC(=O)[C@H](CCCCN)NC(=O)CC[C@H](NC(=O)CCCCCCCCCCCCCCCCCCC(=O)O)C(=O)O)C(=O)N[C@@H](CC(N)=O)C(=O)N[C@@H]([C@@H](C)O)C(=O)N[C@@H](C)C(=O)N[C@@H]([C@@H](C)O)C(=O)N1)[C@@H](C)O)C(=O)N1CCC[C@H]1C(=O)N[C@@H](CO)C(=O)N[C@@H](CO)C(=O)N[C@H](C(=O)N[C@@H](CC(N)=O)C(=O)N[C@H](C(=O)NCC(=O)N[C@@H](CO)C(=O)N[C@@H](CC(=O)O)C(=O)N[C@H](C(=O)N1CCC[C@H]1C(N)=O)[C@@H](C)O)C(C)C)[C@@H](C)O` [Example 11] ({C20 diacid-γGlu}-KCNTATCATQRLAEFLRHSSPNFGAIPSSTNVGSDTP-NH2; disulfide 2-7 (inferred)), the “Ratio hCT/hAmylin funct.” value in test [1] (setting [3]), in test [1] (setting [4]), in test [1] (setting [5]) and in test [1] (setting [6]) was 0.9 throughout. Also, in test [1] (human amylin receptor functional potency, assay (II), read-out: hAmylin-R funct. EC50), the EC50 was determined as 0.12 nM. The IC50 in test [2] (Table 4, read-out: hAmylin-R bind IC50) worked out at 0.105 nM. The “Ratio hCT/hAmylin binding” value in test [2] (setting [7]) and in test [2] (setting [8]) was 1.0 throughout.

Regarding `CC[C@H](C)[C@H](NC(=O)[C@H](C)NC(=O)CNC(=O)[C@H](Cc1ccccc1)NC(=O)[C@H](CC(N)=O)NC(=O)[C@@H]1CCCN1C(=O)[C@H](CO)NC(=O)[C@H](CO)NC(=O)[C@H](Cc1c[nH]cn1)NC(=O)[C@H](CCCNC(=N)N)NC(=O)[C@H](CC(C)C)NC(=O)[C@H](Cc1ccccc1)NC(=O)[C@H](CCC(=O)O)NC(=O)[C@H](C)NC(=O)[C@H](CC(C)C)NC(=O)[C@H](CCCNC(=N)N)NC(=O)[C@H](CCC(N)=O)NC(=O)[C@@H](NC(=O)[C@H](C)NC(=O)[C@@H]1CSSC[C@H](NC(=O)[C@@H](N)CCCCNC(=O)CC[C@H](NC(=O)CCCCCCCCCCCCCCCCCCC(=O)O)C(=O)O)C(=O)N[C@@H](CC(N)=O)C(=O)N[C@@H]([C@@H](C)O)C(=O)N[C@@H](C)C(=O)N[C@@H]([C@@H](C)O)C(=O)N1)[C@@H](C)O)C(=O)N1CCC[C@H]1C(=O)N[C@@H](CO)C(=O)N[C@@H](CO)C(=O)N[C@H](C(=O)N[C@@H](CC(N)=O)C(=O)N[C@H](C(=O)NCC(=O)N1CCC[C@H]1C(=O)N[C@@H](CC(N)=O)C(=O)N[C@H](C(=O)N1CCC[C@H]1C(N)=O)[C@@H](C)O)C(C)C)[C@@H](C)O` [Example 114] (H-K([γGlu-C20 diacid])CNTATCATQRLAEFLRHSSPNFGAIPSSTNVGPNTP-NH2; disulfide 2-7 (inferred); N-terminus assumed), the “Ratio hCT/hAmylin funct.” value in test [1] (setting [3]), in test [1] (setting [4]), in test [1] (setting [5]) and in test [1] (setting [6]) was 0.9 throughout. The “Ratio hCT/hAmylin binding” value in test [2] (setting [7]) and in test [2] (setting [8]) was 0.5 throughout.

Values taken from US9023789B2, “Amylin analogs and pharmaceutical compositions thereof” (Novo Nordisk A/S, priority 2012, dated 2015).
